The results in this text go back to PMC4664966, “Discovery and characterization of novel inhibitors of the sodium-coupled citrate transporter (NaCT or SLC13A5)” (Scientific Reports, 2015).

Series [1] deals with Adrenergic receptor, alpha-2A (ADRA2A) (Homo sapiens, UniProt P08913). The experiment in a line: Selectivity data (Table S1). It counts as binding.
For series [2], the target named is Cytochrome P450 2C9 (CYP2C9) (Homo sapiens, UniProt P11712). The experiment in a line: Selectivity data (Table S1). It counts as in vitro ADME.
Sequence of Cytochrome P450 2C9 (CYP2C9) (P11712 whole entry): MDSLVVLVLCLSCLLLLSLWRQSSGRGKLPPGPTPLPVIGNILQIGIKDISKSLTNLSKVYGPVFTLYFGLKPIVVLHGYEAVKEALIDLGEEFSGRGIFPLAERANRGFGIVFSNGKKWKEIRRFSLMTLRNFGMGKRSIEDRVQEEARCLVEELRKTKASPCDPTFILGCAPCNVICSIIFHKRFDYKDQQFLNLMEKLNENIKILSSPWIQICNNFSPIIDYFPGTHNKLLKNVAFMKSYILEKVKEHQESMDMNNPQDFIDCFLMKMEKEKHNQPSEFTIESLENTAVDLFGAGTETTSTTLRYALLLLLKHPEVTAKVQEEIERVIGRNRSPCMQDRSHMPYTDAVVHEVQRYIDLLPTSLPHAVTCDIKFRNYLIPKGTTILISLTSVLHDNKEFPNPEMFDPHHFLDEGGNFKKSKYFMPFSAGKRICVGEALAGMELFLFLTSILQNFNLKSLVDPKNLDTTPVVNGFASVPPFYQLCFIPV
A further series concerns the target CYP2C9 (Homo sapiens, UniProt P11712). The experiment in a line: Selectivity data (Table S1). It counts as in vitro ADME. Particulars: 3 µM.
Series [3] concerns the target Monoacylglycerol acyltransferase 2 (MGAT2) (Homo sapiens, UniProt Q3SYC2). The experiment in a line: Selectivity data (Table S1). Format: biochemical.
Series [4] addresses Adrenergic receptor, alpha-1A (ADRA1A) (Homo sapiens, UniProt P35348). The experiment in a line: Selectivity data (Table S1). It counts as binding.
Series [5] concerns the target Lymphocyte-specific protein tyrosine kinase (LCK) (Homo sapiens, UniProt P06239). The experiment in a line: Selectivity data (Table S1). Format: biochemical.
Another series concerns HEK-293 parental cells. The experiment in a line: Intracellular concentration of compound in HEK-293 parental cells. It counts as in vitro ADME, human. The note with it: 1 hour incubation; data not shown.
The target of series [6] is Peroxisome proliferator activated receptor gamma (PPAR-gamma) (Homo sapiens, UniProt P37231). The experiment in a line: Selectivity data (Table S1). Format: binding.
Sequence of Peroxisome proliferator activated receptor gamma (PPAR-gamma) (P37231 whole entry): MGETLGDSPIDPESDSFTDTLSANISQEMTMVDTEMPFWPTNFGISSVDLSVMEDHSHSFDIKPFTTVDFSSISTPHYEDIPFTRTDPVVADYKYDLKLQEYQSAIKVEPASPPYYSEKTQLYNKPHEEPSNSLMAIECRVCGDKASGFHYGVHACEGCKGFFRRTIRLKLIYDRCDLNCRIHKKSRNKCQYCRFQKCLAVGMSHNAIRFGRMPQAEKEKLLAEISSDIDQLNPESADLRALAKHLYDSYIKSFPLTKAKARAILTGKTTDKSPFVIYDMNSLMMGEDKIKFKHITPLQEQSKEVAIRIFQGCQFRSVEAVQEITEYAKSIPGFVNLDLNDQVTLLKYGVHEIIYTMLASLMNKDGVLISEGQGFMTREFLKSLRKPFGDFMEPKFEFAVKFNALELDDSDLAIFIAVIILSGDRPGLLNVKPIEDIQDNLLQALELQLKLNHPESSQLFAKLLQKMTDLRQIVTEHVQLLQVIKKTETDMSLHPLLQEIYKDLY
The target of series [7] is Serotonin receptor 2B (5-HT2B) (Homo sapiens, UniProt P41595). The experiment in a line: Selectivity data (Table S1). It counts as binding.
Sequence of Serotonin receptor 2B (5-HT2B) (P41595 whole entry): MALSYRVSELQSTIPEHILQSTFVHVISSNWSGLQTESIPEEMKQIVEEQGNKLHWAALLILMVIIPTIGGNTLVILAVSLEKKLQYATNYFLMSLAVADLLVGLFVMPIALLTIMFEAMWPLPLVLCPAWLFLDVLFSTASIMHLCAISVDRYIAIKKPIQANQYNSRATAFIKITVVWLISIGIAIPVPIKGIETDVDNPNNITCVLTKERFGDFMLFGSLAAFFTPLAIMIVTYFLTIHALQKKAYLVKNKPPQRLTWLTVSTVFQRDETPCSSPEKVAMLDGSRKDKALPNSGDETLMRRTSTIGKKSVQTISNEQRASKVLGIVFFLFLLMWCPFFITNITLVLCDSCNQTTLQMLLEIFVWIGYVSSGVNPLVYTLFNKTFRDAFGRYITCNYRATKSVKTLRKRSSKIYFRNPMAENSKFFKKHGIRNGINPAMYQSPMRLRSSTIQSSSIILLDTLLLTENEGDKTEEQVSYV
The target in series [8] is Noradrenaline transporter, sodium-dependent (NAT) (Homo sapiens, UniProt P23975). The experiment in a line: Selectivity data (Table S1).
The target of the next series is Dopamine receptor 2 (D2) (Homo sapiens, UniProt P14416). The experiment in a line: Selectivity data (Table S1). Format: binding.
Sequence of Dopamine receptor 2 (D2) (P14416 whole entry): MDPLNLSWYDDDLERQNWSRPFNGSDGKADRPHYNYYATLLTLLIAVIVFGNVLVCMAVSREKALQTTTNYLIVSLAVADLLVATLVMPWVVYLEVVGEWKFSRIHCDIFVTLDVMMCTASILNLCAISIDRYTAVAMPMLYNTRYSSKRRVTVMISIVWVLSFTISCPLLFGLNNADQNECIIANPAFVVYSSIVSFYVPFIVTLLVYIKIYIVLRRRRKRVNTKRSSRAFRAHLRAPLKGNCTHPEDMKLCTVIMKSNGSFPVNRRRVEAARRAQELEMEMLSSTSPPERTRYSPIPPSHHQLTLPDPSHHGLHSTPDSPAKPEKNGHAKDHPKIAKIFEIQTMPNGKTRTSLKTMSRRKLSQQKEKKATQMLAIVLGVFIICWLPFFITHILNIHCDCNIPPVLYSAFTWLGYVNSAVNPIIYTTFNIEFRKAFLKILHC
Series [9] concerns the target Cannabinoid receptor 1 (CB1) (Homo sapiens, UniProt P21554). The experiment in a line: Selectivity data (Table S1). Format: binding.
The test system of another series is Calcium channel, L-type. The experiment in a line: Selectivity data (Table S1).
The next series concerns the target Endothelin (ETA) (Homo sapiens, UniProt P25101). The experiment in a line: Selectivity data (Table S1). Format: binding.
The next series deals with T1, NaDC1 (SLC13A2) (Homo sapiens, UniProt Q13183).
T1 construct: host or cells: HEK-293, transient (Fugene HD)
T1 sequence (Q13183 1-592): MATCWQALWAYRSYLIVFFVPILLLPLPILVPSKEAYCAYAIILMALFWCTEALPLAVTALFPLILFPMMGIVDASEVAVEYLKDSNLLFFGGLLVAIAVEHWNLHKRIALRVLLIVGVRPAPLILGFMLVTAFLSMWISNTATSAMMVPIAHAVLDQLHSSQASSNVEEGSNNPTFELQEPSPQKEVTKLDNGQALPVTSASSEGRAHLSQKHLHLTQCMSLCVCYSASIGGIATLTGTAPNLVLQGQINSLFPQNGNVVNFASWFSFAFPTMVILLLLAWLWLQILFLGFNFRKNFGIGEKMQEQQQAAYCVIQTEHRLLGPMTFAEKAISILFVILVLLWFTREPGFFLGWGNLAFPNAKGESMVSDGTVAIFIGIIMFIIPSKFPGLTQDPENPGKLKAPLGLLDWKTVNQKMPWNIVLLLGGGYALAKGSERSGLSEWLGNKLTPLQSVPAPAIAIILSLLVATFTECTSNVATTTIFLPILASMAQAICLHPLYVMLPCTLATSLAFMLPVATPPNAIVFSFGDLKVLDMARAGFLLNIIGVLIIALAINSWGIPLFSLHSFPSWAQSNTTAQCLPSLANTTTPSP
The experiment in a line: Inhibition of citrate or succinate uptake in HEKNaDC1 cells. It counts as cell-based. The source says: Protocols to generate the stable cell line overexpressing NaCT or cell transfection with SLC13A2 or SLC13A3 can be found in the supporting information. HEK-293 cells stably transfected with the human sodium Citrate transporter SLC13A5 or transiently transfected with the human SLC13A2 or SLC13A3 transporter were removed from the flasks with dissociation buffer and re-suspended in an equal volume of growth media (DMEM, High Glucose supplemented with 10% heat inactivated fetal bovine serum and 500 μg/ml Geneticin). For the transient transfections, Geneticin was eliminated from the media. Cell suspensions were centrifuged at 1,000 rpm for approximately 5 minutes. Resulting cell pellets were re-suspended in growth media and placed in a 37 °C water bath for approximately 10 minutes prior to a final spin at 1,000 rpm. Following this spin the resulting cell pellets were re-suspended in assay buffer, 142 mM NaCl (or 142 mM choline chloride), 5 mM KCl, 1.2 mM MgSO4, 1.5 mM CaCl, 5 mM glucose and 25 mM HEPES pH 7.4. Cell suspensions were counted and the concentration adjusted as needed with assay buffer to 2e[6] viable cells /mL. 20 μL of cell suspension were added to 384-well cyotstar-T plates followed by the addition of 5 μL of 10× concentration of compound. Cells and compound were incubated at 37 °C for approximately 30 minutes prior to the addition of 25 μL of 300 μM citric acid (16 μM radiolabeled [^14C]-citric acid and 284 μM cold citric acid) to make a 150 μM final concentration of citric acid or 21 μM [^14C]-succinic acid. After substrate addition, the uptake of radioactivity was monitored on Perkin Elmer Microbeta plate reader. Data from reads between 45–90 minutes was used to assess the ability of test compounds to inhibit the uptake of citric or succinic acid. […]
were plated, and incubated for 48 hours. Following the incubation, NaDC1 and NaDC3 assays were executed identical to the procedure for NaCT. […]
The solution was heated to reflux until the total volume was reduced to ~25 mL. […]

Another series addresses CYP2D6 (Homo sapiens, UniProt P10635). The experiment in a line: Selectivity data (Table S1). Format: in vitro ADME. The note with it: 3 µM.
Series [10] addresses Cytochrome P450 2D6 (CYP2D6) (Homo sapiens, UniProt P10635). The experiment in a line: Selectivity data (Table S1). It counts as in vitro ADME.
The target in series [11] is Neurokinin receptor 1 (NK1) (Homo sapiens, UniProt P25103). The experiment in a line: Selectivity data (Table S1). It counts as binding.
Sequence of Neurokinin receptor 1 (NK1) (P25103 whole entry): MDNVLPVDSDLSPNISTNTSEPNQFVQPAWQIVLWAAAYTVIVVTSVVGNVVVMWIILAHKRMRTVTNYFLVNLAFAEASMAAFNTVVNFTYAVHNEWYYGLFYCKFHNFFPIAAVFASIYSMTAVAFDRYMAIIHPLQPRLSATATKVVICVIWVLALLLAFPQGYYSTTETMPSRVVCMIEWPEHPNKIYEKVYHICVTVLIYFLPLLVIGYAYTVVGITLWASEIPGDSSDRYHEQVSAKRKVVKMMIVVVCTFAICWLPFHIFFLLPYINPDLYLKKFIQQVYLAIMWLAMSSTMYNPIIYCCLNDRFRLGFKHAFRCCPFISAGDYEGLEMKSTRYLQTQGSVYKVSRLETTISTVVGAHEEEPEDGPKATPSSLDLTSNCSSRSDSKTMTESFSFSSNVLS

The term inhibition denotes the percentage by which the read-out fell short of the control. Lower therefore signals a response near the control. One may read the IC50 as the midpoint of a concentration-inhibition curve.

Sequence of Adrenergic receptor, alpha-2A (ADRA2A) (P08913 whole entry): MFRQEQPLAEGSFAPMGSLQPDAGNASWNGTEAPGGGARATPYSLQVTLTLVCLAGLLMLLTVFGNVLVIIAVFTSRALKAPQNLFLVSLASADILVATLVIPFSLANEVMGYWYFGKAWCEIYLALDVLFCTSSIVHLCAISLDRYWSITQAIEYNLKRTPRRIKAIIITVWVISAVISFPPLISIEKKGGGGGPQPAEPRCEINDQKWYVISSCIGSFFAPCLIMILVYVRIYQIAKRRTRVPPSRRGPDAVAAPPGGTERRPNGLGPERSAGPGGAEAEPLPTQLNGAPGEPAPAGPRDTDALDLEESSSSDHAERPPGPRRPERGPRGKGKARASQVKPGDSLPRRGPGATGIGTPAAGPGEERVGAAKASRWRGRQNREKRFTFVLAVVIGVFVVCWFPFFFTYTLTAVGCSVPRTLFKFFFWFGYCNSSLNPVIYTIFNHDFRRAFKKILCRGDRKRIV
Sequence of Adrenergic receptor, alpha-1A (ADRA1A) (P35348 whole entry): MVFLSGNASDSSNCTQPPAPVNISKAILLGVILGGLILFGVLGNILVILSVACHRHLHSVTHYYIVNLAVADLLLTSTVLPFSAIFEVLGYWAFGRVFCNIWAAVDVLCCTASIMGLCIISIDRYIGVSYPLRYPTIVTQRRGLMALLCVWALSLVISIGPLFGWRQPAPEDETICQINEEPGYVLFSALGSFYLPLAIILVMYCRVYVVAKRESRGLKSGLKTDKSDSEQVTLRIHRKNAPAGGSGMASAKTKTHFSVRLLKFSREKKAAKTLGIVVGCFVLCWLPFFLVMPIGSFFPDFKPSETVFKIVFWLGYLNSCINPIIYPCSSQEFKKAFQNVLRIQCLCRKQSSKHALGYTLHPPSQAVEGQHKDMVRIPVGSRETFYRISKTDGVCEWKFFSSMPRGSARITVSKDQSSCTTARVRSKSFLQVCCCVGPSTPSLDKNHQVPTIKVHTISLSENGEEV
Sequence of CYP2C9 (P11712 whole entry): as the sequence (P11712 whole entry) above
Sequence of Cannabinoid receptor 1 (CB1) (P21554 whole entry): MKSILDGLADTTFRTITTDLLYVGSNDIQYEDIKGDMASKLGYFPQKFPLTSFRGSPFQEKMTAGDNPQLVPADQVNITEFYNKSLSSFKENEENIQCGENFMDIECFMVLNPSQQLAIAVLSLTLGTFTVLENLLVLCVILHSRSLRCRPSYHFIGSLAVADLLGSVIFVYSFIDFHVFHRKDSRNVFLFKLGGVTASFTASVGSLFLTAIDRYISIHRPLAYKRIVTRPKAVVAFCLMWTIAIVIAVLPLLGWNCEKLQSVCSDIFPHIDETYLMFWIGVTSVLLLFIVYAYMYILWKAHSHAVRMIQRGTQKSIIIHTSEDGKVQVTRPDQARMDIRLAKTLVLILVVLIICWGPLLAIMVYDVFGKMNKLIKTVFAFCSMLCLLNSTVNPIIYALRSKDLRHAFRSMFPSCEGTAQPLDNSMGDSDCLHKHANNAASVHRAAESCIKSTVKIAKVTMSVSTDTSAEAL
Sequence of Monoacylglycerol acyltransferase 2 (MGAT2) (Q3SYC2 whole entry): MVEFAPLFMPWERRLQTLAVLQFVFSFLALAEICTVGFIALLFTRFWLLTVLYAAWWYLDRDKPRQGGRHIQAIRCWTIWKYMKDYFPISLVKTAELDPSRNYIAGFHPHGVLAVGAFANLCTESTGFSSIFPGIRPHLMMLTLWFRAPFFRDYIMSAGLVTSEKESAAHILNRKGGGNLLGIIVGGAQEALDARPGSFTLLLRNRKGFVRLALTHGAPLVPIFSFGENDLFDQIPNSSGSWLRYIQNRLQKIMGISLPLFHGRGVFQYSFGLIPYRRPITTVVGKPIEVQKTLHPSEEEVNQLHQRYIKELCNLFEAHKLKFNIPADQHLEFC
Sequence of Endothelin (ETA) (P25101 21-427): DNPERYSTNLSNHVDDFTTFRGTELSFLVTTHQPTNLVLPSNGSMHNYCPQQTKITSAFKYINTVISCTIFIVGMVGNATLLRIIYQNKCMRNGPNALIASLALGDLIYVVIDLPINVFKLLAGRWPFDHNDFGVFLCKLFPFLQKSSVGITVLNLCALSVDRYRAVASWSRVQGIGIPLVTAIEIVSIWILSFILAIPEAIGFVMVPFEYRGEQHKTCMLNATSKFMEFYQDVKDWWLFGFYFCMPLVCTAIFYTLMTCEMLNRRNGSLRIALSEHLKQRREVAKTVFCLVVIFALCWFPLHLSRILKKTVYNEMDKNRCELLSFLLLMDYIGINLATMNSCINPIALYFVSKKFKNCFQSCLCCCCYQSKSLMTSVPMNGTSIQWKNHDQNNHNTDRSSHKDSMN

For `CC(C)(C)c1ccc(CC[C@@](O)(CC(=O)O)C(=O)O)cc1` [Compound 2], the inhibition at 100 µM in series [1], in [4], in series [5], in series [6], in [7] and in series [8] was below 10% throughout. Moreover, the inhibition at 100 µM (against Dopamine receptor 2 (D2); in series [9]; on Endothelin (ETA); in series [11]) was below 10% each time. Also, the “interaction/inhibition of CYP2C9” value in [2] is listed as “no significant interaction/inhibition”. Besides, the inhibition at 3 µM on CYP2C9 and at CYP2D6 was below 10% in each case. In addition, the IC50 in [3] was above 50 µM; in the series on Calcium channel, L-type, above 30 µM; against NaDC1 (SLC13A2) (compound 4: mean of 2 replicates) it was above 100 µM. In addition, in the series with HEK-293 parental cells, the “intracellular level in HEK-293 parental cells” value is given as “not detected at significant levels”. Also, the “inhibition of citrate or succinate uptake, NaDC1” value on NaDC1 (SLC13A2) (HEK-293-derived system overexpressing NaDC1) was “No measurable inhibition”. Besides, the “interaction/inhibition of CYP2D6” value in series [10] is on record as “no significant interaction/inhibition”.
